Data from publication PMC4259358, “Functional Characterization of Nuclear Localization and Export Signals in Hepatitis C Virus Proteins and Their Role in the Membranous Web” (PLoS ONE, 2014).
Ends that are not written are not given here.

Key:
JFH-1 HCV = assay type: cell-based, Hepatitis C virus; conditions: Huh7.5, JFH-1, 4 h at 4°C then 37°C; added at 2 h intervals; % NS5A-positive cells at 72 h PTS; Ezetimibe 30 µM, LMB 18 nM, BMS-986094 10 nM, DGAT 1 inhibitor 10 nM; n = 3
Protocol: Huh7.5 cells were infected with JFH-1 HCV and maintained at 4°C for 4 hours (h) to synchronize the cells before shifting the temperature to 37°C. Post temperature shift (PTS), infected cells were incubated for various lengths of times prior to the addition of peptides or known inhibitors of HCV at 2 h intervals. […] We deliberately selected the final time point of 72 h PTS to reflect the number of cells infected by a second round of infection. […] This would be reflected by the number of cells infected in the second round as measured at 72 h PTS.
In order to elucidate the time points in infection when the nuclear transport signals bearing peptides are functional, cells were synchronously infected and treated with the indicated peptides. Each time point (2 h intervals) represents a culture treated with the indicated reagent at the specified time post temperature shift (PTS) and initiation of HCV infection. […] (A) Known inhibitors of HCV production (Ezetimibe (30 µM), LMB (18 nM), BMS-986094 (10 nM) and DGAT 1 inhibitor (10 nM)) and control (Pen peptide 100 µM, DMSO 2%, no treatment, and no infection) were examined. […] Error bars represent ± standard deviation, n = 3.
For the time of addition experiments, cells were seeded at a density of 6.25×10^4 cells/well in a 96-well plate and infected with 0.1 genomic equivalents of serially passaged JFH-1 virus on ice: cells then were incubated at 4°C for 4 h.
Briefly, Huh7.5 cells were infected as described above and the test compounds were added to different wells at different time points before the temperature shift (-4 h and -2 h) and every 2 h after the temperature shift (0, 2, 4,…, 48 h). […] The infection levels were calculated by counting infected and total cells numbers in ten random fields for each condition. The non-treated cell infection level was normalized to 100% and all other infections were calculated based on that normalization.

IPOA5 = biological target: T1, IPOA5 (Homo sapiens, UniProt P52294); test: biochemical; assay type: binding
T1 construct: Expression and purification of full length IPOA5, IPO5 were perform according to methods described previously; His tag; made in house; host or cells: Escherichia coli BL21(DE3), pET21 vector

XPO1 (CRM1) = test: HCV genotype 1 peptide array probed with Huh7.5 cell lysate; assay type: binding; conditions: array of 15 residue peptides (8 residue overlaps), Huh7.5 lysate, anti-XPO1 antibody; a peptide bound
Protocol: (§1) However, various HCV proteins contain putative NLSs and NESs, [41], [53]. To identify potential interactions between cellular NTFs and HCV proteins, we designed a peptide array spanning the entire HCV genotype 1 consensus polyprotein sequence. These arrays were incubated with or without cell lysates and then probed using specific antibodies for components of the nuclear transport machinery. We detected binding of IPOA5 (importin α5/kap α1), IPO5 (importin β3/kap β3) and XPO1 (CRM1), but not IPO1 (importin β1/kap β1), to eleven distinct regions within HCV proteins (Fig. 1A, Table 1). All of the antibodies were also tested by western blotting of cell lysates to validate that they detected the corresponding NTF (Fig. 1B).
(§2) Figure 1 Identification of sequences within the HCV polyprotein that bind nuclear transport factors. (A) HCV genotype 1 peptide arrays consisting of 15 residue peptides (with 8 residue overlaps) spanning the complete HCV polypeptide were incubated with Huh7.5 cells lysates. Bound NTFs were detected using antibodies specific for the indicated NTF. Control peptide arrays were incubated with only NTF-specific antibodies. The different colored regions of the array represent peptides derived from different HCV proteins (see schematic). The last four peptides on the array are additional sequences which some of the HCV strains have in their polyproteins at the C terminus. (B) The same lysate used to probe the peptide arrays was also analyzed by western blotting to detect the indicated NTFs and assess the specificities of the antibodies. (C) Schematic summary of the localization of the NTF binding sites on the indicated HCV proteins.
(§3) A consensus sequence of HCV Genotype 1 polyprotein was used to design consecutive fifteen amino-acid residue peptides with eight residue overlaps along the complete polyprotein sequence. Peptides were synthesised by Intavis Bioanalytical Instruments (Koeln, Germany) using a CelluSpots peptide array synthesis technology. Peptide arrays were incubated in blocking buffer (TBS containing 0.05% tween 20 (v/v) and 10% skim milk (g/v)) overnight at 4°C on a gentle shaker. Following the blocking, the peptide arrays were washed three times with washing buffer (TBS containing 0.05% tween 20 (v/v)) for 5 min at room temperature on a gentle shaker. The peptide arrays were then incubated for 4 h with cell lysate from two T-75 flasks of fully confluent cells lysed by lysis buffer (10 mM Tris-HCl, pH 7.5, 150 mM NaCl, 2 mM EDTA, 0.1% Triton-X100, 1 mM PMSF, 2 µg/ml aprotinin, 2 µg/ml leupeptin and 0.1 units/µl RNasin) mixed with blocking buffer (ratio 1∶1 v/v) and incubated at room temperature on a gentle shaker. Following this incubation, peptide arrays were rinsed with washing buffer for 30 sec and then washed five times in washing buffer and each wash lasted for 5 min at room temperature on a gentle shaker. Following washing, the peptide arrays were incubated with the primary antibody as indicated in Fig. 1 (1∶100 dilution) for 4 h at room temperature on a gentle shaker. Arrays were then rinsed, washed as described above, and incubated with a complementary HRP conjugated secondary antibody (1∶1000) for 2 h at room temperature on a gentle shaker. The peptide arrays were then rinsed and washed as described above followed by initiation of HRP chemiluminescence with ECL detection reagent (GE Healthcare, RPN2106) and the signal was detected using Fuji RX film (Fujifilm, 47410 08399).

[1] = tested on: IPO5 (importin β3/kap β3); test: as above; assay type: binding; conditions: array of 15 residue peptides (8 residue overlaps), Huh7.5 lysate, anti-IPO5 antibody; a peptide bound
Protocol: as §1, §2, §3

[2] = tested on: IPOA5 (importin α5/kap α1); test: as above; assay type: binding; conditions: array of 15 residue peptides (8 residue overlaps), Huh7.5 lysate, anti-IPOA5 antibody; a peptide bound
Protocol: as §1, §2, §3

HEK293T cells = test: Localization of nuclear transport signal-double GFP reporter in HEK293T cells; assay type: cell-based; set-up: key: +++ for strong; ++ for moderate; + for weak; − for no localization; conditions: double GFP cargo, 24 h post transfection, fluorescence quantified with ImageJ (S6, S7 Figures); NES/SEN on SV40 NLS double GFP
Source text: To determine whether NTF binding sites found in the HCV proteins were functional nuclear transport signals, we constructed reporter proteins each consisting of one of the HCV proteins NTF binding sites followed by two C-terminal, tandemly repeated GFP molecules. The double GFP moieties were required to keep the reporter from entering the nucleus, since a single GFP is small enough to diffuse freely through NPCs, [35]. As controls, constructs containing the reversed amino-acid residue sequence of the potential NLS (SLN) were also examined using the double GFP reporter assay (S5 Figure). These SLN reporters were predicted to not accumulate in the nucleoplasm. In addition, reporters to examine the functionality of the potential XPO1 binding domains were also constructed. These reporters consist of an SV40 NLS and a double GFP molecule followed by one of the various potential NESs at the C-terminus (S5 Figure). In the absence of a functional NES, this reporter will accumulate in the nucleus. However, a functional NES is predicted to export the reporter, leading to increased steady-state levels of the reporter in the cytoplasm.
Figure 4 Functionality of the putative nuclear transport signals in cells. Cells were transfected by the vectors encoding a nuclear transport reporter consisting of a tandemly repeated double GFP fused to the indicated C-terminal nuclear transport signal (panels A-N). At 24 h following transfection, cells were fixed and stained with Hoechst to visualize the nucleus. Cells were examined using a Zeiss inverted Axiovert 200 M microscope to assess the localization of the GFP (green) and its relationship to the nucleus (blue). A hashed yellow square demarcates the magnified area shown in the right-most image of each panel. Fluorescent intensity was quantified using ImageJ v. […] Analysis of the reverse sequences of each transport signal as well as the mutant SV40 NLS was also performed and the results are shown in S7 Figure.
Nuclear transport signals-double GFP constructs were transfected into HEK293T cells using lipofectamine 2000. At 24 h post transfection cells were fixed, stained, and visualized for localization of the GFP. For detailed information see S1 Methods.
Nuclear transport signal-double GFP constructs were transfected into HEK293T cells using lipofectamine 2000 reagent (Invitrogen, 11668019). At 24 h post transfection cells were fixed with 3.76% formaldehyde at room temperature (Sigma, F8775-500ML) for 8 min then permeabilized in 0.2% Triton X-100 (VWR, CA97062-208) for 2 min. Cells were washed three times with X1 PBS and were stained with Hoechst 1:5000 in X1 PBS for 5 min followed by three washes with X1 PBS. The cells were visualized using a Zeiss inverted Axiovert 200M microscope with a 20x/0.8 objective lens to examine localization of the GFP. At least ten random fields of cells were imaged for each combination. Channels were merged using ImageJ software (National Institutes of Health). Photoshop Elements 10 (Adobe) software was used to adjust brightness and contrast levels for individual images and to assemble images into figures.

IPO5 = biological target: T2, IPO5 (Homo sapiens, UniProt O00410); test: biochemical; assay type: binding
T2 construct: Expression and purification of full length IPOA5, IPO5 were perform according to methods described previously; His tag; made in house; host or cells: Escherichia coli BL21(DE3), pET21 vector
T2 sequence (O00410 whole entry): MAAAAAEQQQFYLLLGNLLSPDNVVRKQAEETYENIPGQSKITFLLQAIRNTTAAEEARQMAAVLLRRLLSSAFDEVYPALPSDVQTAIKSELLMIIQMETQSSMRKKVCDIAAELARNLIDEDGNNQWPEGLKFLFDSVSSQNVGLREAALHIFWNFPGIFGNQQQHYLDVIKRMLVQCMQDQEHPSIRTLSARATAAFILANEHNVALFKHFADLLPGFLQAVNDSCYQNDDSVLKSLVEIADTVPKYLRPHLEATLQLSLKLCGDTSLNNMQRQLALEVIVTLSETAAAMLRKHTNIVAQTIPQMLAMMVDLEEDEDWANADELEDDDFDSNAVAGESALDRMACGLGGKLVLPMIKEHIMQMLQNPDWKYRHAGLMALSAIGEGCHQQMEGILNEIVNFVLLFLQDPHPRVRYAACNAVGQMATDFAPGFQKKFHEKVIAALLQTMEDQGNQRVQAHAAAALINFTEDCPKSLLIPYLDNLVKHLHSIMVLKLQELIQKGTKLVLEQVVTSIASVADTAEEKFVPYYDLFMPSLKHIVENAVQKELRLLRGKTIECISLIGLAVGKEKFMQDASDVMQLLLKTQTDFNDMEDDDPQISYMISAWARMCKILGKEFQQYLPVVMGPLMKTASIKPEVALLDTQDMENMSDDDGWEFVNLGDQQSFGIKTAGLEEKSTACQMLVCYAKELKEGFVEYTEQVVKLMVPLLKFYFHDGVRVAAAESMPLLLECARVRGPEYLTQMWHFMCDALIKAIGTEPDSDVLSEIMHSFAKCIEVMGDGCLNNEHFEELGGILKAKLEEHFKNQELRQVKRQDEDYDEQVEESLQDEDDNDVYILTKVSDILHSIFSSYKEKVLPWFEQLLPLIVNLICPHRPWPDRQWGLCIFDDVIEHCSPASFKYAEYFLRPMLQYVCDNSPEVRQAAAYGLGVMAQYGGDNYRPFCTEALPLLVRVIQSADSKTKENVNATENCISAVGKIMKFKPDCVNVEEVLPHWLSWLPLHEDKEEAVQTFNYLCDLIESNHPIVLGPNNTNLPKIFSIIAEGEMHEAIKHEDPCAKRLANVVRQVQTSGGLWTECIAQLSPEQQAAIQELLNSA

T1 sequence (P52294 whole entry): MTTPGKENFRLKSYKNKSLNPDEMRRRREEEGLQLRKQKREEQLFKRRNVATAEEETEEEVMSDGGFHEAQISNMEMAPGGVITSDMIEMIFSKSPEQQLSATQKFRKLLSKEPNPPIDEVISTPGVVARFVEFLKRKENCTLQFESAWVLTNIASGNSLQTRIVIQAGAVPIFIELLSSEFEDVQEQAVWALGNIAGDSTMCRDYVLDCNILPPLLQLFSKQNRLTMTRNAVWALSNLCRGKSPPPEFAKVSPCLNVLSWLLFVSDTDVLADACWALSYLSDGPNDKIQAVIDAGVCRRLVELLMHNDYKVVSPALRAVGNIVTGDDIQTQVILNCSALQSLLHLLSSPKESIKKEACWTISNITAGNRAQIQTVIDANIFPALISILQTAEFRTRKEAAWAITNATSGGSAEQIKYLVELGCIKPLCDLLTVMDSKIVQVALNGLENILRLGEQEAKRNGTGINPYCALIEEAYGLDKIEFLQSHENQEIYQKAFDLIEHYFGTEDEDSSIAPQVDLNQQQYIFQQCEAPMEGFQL

Molecule: COc1nc(N)nc2c1ncn2[C@@H]1O[C@H](COP(=O)(N[C@@H](C)C(=O)OCC(C)(C)C)Oc2cccc3ccccc23)[C@@H](O)[C@@]1(C)O (some centres unmarked) [BMS-986094]
- time of addition at which the ability to inhibit HCV infection is lost (JFH-1 HCV): 10–24 h PTS

Molecule: CC[C@H](C)[C@H](NC(=O)[C@H](CCCCN)NC(=O)[C@@H](NC(=O)[C@H](CCC(N)=O)NC(=O)[C@H](CCCNC(=N)N)NC(=O)CNC(=O)[C@H](Cc1c[nH]c2ccccc12)NC(=O)[C@@H](NC(=O)[C@@H](NC(=O)[C@@H](NC(=O)[C@H](CCCCN)NC(=O)[C@H](CCCCN)NC(=O)[C@H](CCC(=O)O)NC(=O)[C@H](CCSC)NC(=O)[C@@H]1CCCN1C(=O)[C@H](CO)NC(=O)[C@H](Cc1ccccc1)NC(=O)[C@@H](NC(=O)[C@@H](NC(=O)[C@@H]1CCCN1)[C@@H](C)CC)[C@@H](C)CC)C(C)C)[C@@H](C)CC)C(C)C)[C@@H](C)CC)C(=O)N[C@@H](Cc1c[nH]c2ccccc12)C(=O)N[C@@H](Cc1ccccc1)C(=O)N[C@@H](CCC(N)=O)C(=O)N[C@@H](CC(N)=O)C(=O)N[C@@H](CCCNC(=N)N)C(=O)N[C@@H](CCCNC(=N)N)C(=O)N[C@@H](CCSC)C(=O)N[C@@H](CCCCN)C(=O)N[C@@H](Cc1c[nH]c2ccccc12)C(=O)N[C@@H](CCCCN)C(=O)N[C@@H](CCCCN)C(=O)O [NS2 NLS]
- Kd (IPOA5): 0.0793 ± 0.00389 µM

Molecule: CC[C@H](C)[C@H](NC(=O)[C@H](CCCCN)NC(=O)[C@@H](NC(=O)[C@H](CCC(N)=O)NC(=O)[C@H](CCCNC(=N)N)NC(=O)[C@@H](NC(=O)[C@H](CCCCN)NC(=O)[C@H](CCCNC(=N)N)NC(=O)[C@H](CCCCN)NC(=O)[C@H](CCCCN)NC(=O)[C@H](CCCCN)NC(=O)[C@@H]1CCCN1)C(C)C)[C@@H](C)CC)C(=O)N[C@@H](Cc1c[nH]c2ccccc12)C(=O)N[C@@H](Cc1ccccc1)C(=O)N[C@@H](CCC(N)=O)C(=O)N[C@@H](CC(N)=O)C(=O)N[C@@H](CCCNC(=N)N)C(=O)N[C@@H](CCCNC(=N)N)C(=O)N[C@@H](CCSC)C(=O)N[C@@H](CCCCN)C(=O)N[C@@H](Cc1c[nH]c2ccccc12)C(=O)N[C@@H](CCCCN)C(=O)N[C@@H](CCCCN)C(=O)O [SV40 NLS, reference compound]
- Kd (IPOA5): 0.0271 ± 0.00423 µM

Molecule: FLLALLSCITVPVSA [A23, HCV genotype 1 array peptide, core residues 177-191]
- Binding to XPO1 (XPO1 (CRM1)): A23: 177-[…]-191

Molecule: GVYLLPRRGPRLGVR [A5, HCV genotype 1 array peptide, core residues 33-47]
- Binds to IPO5 [1]: A5: 33-[…]-47
- Binding to IPOA5 [2]: A5: 33-[…]-47

Molecule: GWVIVKKEMPSFIIPRQIKIWFQNRRMKWKK [NS2 SLN]
- Localization Cytoplasmic (HEK293T cells): +++
- Localization Nuclear (HEK293T cells): −

Molecule: IPKDRRSTGKAWGKP [A9, HCV genotype 1 array peptide, core residues 65-79]
- Binds to IPO5 [1]: A9: 65-[…]-79
- Binding to IPOA5 [2]: A9: 65-[…]-79

Molecule: KAPTPPPRRRRTVGL [M3]
- Binds to IPO5 [1]: M3: 2321-[…]-2335

Molecule: KVIDTLTCGFADLMG [A16, HCV genotype 1 array peptide, core residues 121-135]
- Binding to XPO1 (XPO1 (CRM1)): A16: 121-[…]-135

Molecule: LPGFPFSIFLLALLS [A22, HCV genotype 1 array peptide, core residues 169-183]
- Binding to XPO1 (XPO1 (CRM1)): A22: 169-[…]-183

Molecule: MSTNPKPQRKTKRNT [A1, HCV genotype 1 array peptide, core residues 1-15]
- Binds to IPO5 [1]: A1: 1-[…]-15
- Binding to IPOA5 [2]: A1: 1-[…]-15

Molecule: PARRRGDKRGALLSP [F24]
- Binds to IPO5 [1]: F24: 1145-[…]-1159

Molecule: PARRRGDKRRQIKIWFQNRRMKWKK [NS3 NLS 1]
- Kd (IPO5): 0.0338 ± 0.0056 µM

Molecule: PIIFSPMEKKVIVWG [F3]
- Binding to IPOA5 [2]: F3: 977-[…]-991

Molecule: PPPRRRRTVRQIKIWFQNRRMKWKK [NS5A NLS]
- Kd (IPOA5): 7.63 ± 0.259 µM
- Kd (IPO5): 0.0323 ± 0.00499 µM

Molecule: PRHRSRNVGKRQIKIWFQNRRMKWKK [Core NLS 4]
- Kd (IPOA5): 0.518 ± 0.0286 µM
- Kd (IPO5): 0.105 ± 0.0311 µM

Molecule: PSWGPTDPRHRSRNV [A14, HCV genotype 1 array peptide, core residues 105-119]
- Binds to IPO5 [1]: A14: 105-[…]-119

Molecule: QPRGRRQPIPKDRRS [A8, HCV genotype 1 array peptide, core residues 57-71]
- Binds to IPO5 [1]: A8: 57-[…]-71
- Binding to IPOA5 [2]: A8: 57-[…]-71

Molecule: RHRSRNVGKVIDTLT [A15, HCV genotype 1 array peptide, core residues 113-127]
- Binds to IPO5 [1]: A15: 113-[…]-127

Molecule: RKTKRNTNRRPEDVK [A2, HCV genotype 1 array peptide, core residues 9-23]
- Binds to IPO5 [1]: A2: 9-[…]-23
- Binding to IPOA5 [2]: A2: 9-[…]-23

Molecule: RRRTVGLSESTISEA [M4]
- Binds to IPO5 [1]: M4: 2329-[…]-2343

Molecule: RSQRRGRTTGRGRRQIKIWFQNRRMKWKK [NS3 NLS 2]
- Kd (IPOA5): 0.0366 ± 0.00713 µM
- Kd (IPO5): 0.0358 ± 0.00726 µM

Molecule: SQRRGRTGRGRQGTY [H19]
- Binds to IPO5 [1]: H19: 1489-[…]-1503
- Binding to IPOA5 [2]: H19: 1489-[…]-1503

Molecule: TIFYQLWWILRALFLKYHPSLTLLILRQIKIWFQNRRMKWKK [NS2 SEN]
- Localization Cytoplasmic (HEK293T cells): −
- Localization Nuclear (HEK293T cells): +++

Molecule: TLLGQCLWWLCYLLT [E10]
- Binding to XPO1 (XPO1 (CRM1)): E10: 841-[…]-855

Molecule: VPQDAVSRSQRRGRT [H18]
- Binds to IPO5 [1]: H18: 1481-[…]-1495
- Binding to IPOA5 [2]: H18: 1481-[…]-1495

Molecule: VTRNADVIPARRRGD [F23]
- Binds to IPO5 [1]: F23: 1137-[…]-1151

Molecule: VTRRRRPPPRQIKIWFQNRRMKWKK [NS5A SLN]
- Localization Cytoplasmic (HEK293T cells): +++
- Localization Nuclear (HEK293T cells): −
